Converted amounts (≈) assume the structure as drawn. Marks after values point to notes of the source that are not given here. Residues, ends and D or L forms follow the SMILES beside them. No end group written: not given here. *: point of attachment. Cholesteryloxycarbonyl = CC(C)CCC[C@@H](C)[C@H]1CC[C@H]2[C@@H]3CC=C4C[C@@H](OC(=O)*)CC[C@]4(C)[C@H]3CC[C@]12C
Columns and labels:
S. aureus ATCC25923 [1] = assay: S. aureus ATCC25923-infected mouse peritonitis model; type: in vivo; conditions: i.p. 20 μL of 1 μg/μL once per day for 3 days
Procedure: The dissemination of S. aureus ATCC25923 to target organs was assessed in the peritonitis model. The assessment was performed on the basis of the method described previously with minor modifications. Six groups of 60 mice (10 mice per group) were randomly divided into PMAP-37, PMAP-37(F34-R), Chol-37(F34-R), ampicillin sodium, PBS, and blanks group. Bacterial suspension (1 × 10^8 CFU/mL, 100 μL) was intraperitoneally injected into mice. After 2 h inoculation, PMAP-37 (20 μL, 1 μg/μL), PMAP-37(F34-R) (20 μL, 1 μg/μL), Chol-37(F34-R) (20 μL, 1 μg/μL), ampicillin sodium (20 μL, 1 μg/μL), or PBS (20 μL) was intraperitoneally injected into the mice, and the treatment program was implemented once per day for 3 days. Mice in the blank group were not challenged and treated. […] Aliquots of diluted homogenized tissues were spread on LB agar, on which the bacterial burden was determined for analysis. […] Pathological changes were scored as follows: a score of 1 indicated no pathology, 2 indicated perivascular infiltrates, 3 indicated perivascular and interstitial infiltrates affecting < 20% of the section, 4 indicated perivascular and interstitial infiltrates affecting 20 to 50% of the section, and 5 indicated perivascular and interstitial infiltrates affecting > 50% of the section.

S. aureus ATCC25923 [2] = assay: S. aureus ATCC25923-infected mouse abscess model; type: in vivo; conditions: 10 μL of 1 μg/μL once per day for 3 days, day 3, n = 5
Text: (§1) The abscess model of mouse was built against S. aureus ATCC25923 or P. aeruginosa GIM1.551 as previously described with minor modifications. Twelve groups of 60 mice (5 mice per group) were randomly divided into PMAP-37, PMAP-37(F34-R), Chol-37(F34-R), ampicillin sodium (against S. aureus ATCC25923-infected mouse abscess model), benzylpenicillin potassium (against P. aeruginosa GIM1.551-infected mouse abscess model), PBS, and blank groups. The fur on the back of each mouse was shaved. Bacterial suspensions (1 × 10^8 CFU/mL, 50 μL) were injected into the right side of the dorsum underneath the thin skeletal muscle. After 1 h of inoculation, the infected areas were directly injected with PMAP-37, (10 μL, 1 μg/μL), PMAP-37(F34-R) (10 μL, 1 μg/μL), Chol-37(F34-R) (10 μL, 1 μg/μL), antibiotic (ampicillin sodium 10 μL, 1 μg/μL or benzylpenicillin potassium 10 μL, 1 μg/μL), or PBS (10 μL). The treatment program was conducted once per day for 3 days. Mice in the blank group were not challenged and treated. Three days after treatment, mice were euthanized with 120 mg/kg i.p. sodium pentobarbital, and their skin abscesses were harvested and homogenized as described above to assess the bacterial burden.

S. typhimurium SL1344 = type: cell-based; conditions: SL1344, 18 h
Procedure: (§2) The MIC values of Chol-37(F34-R) were determined using the microdilution method of the Clinical and Laboratory Standards Institute. Antibacterial intensity was tested in MHB against S. aureus ATCC25923, L. monocytogenes CICC21634, S. typhimurium SL1344, and P. aeruginosa GIM1.551. The tested strains were cultured for 12 h at 37 °C. Then, the bacterial inoculum concentration was adjusted to 1 × 10^6 CFU/mL. Twofold serial dilutions covering different concentrations from 0.0039 to 256 μg/mL for each peptide were added to media containing cultures of the tested strains in 96-well plates, which were incubated at 37 °C for 18 h. The MIC values were determined by evaluating the OD600nm of the cultures.

P. aeruginosa GIM1.551 [3] = type: cell-based; conditions: GIM1.551, 12 h
Procedure: as §2
(§3) The effects of salt ion and serum on the antibacterial activities of Chol-37(F34-R) were investigated by MIC assay. S. aureus ATCC25923 and P. aeruginosa GIM1.551 were used as the tested strains. The MIC values were determined at recommended doses of NaCl (8.766 g/L), CaCl2 (0.039 g/L), and fetal bovine serum (20%).
(§4) The effects of salt ion and serum on antibacterial activities of PMAP-37(F34-R)-C were investigated by MIC assay. a, The control MIC values were determined in the absence of physiological salts and serum. b, c, and d, The final concentrations of NaCl, CaCl2, and serum were 8.766 g/L, 0.039 g/L, and 20% (v/v), respectively.

S. aureus ATCC25923 [4] = type: cell-based; conditions: ATCC25923, 12 h
Procedure: as §2, §3, §4

P. aeruginosa GIM1.551 [5] = assay: MIC assay, microdilution method; type: cell-based
Procedure: as §2

[6] = system: L. monocytogenes CICC21634; assay: MIC assay, microdilution method; type: cell-based
Procedure: as §2

S. aureus ATCC25923 [7] = assay: MIC assay, microdilution method; type: cell-based
Procedure: as §2

mouse erythrocytes = assay: Hemolytic assay; conditions: at 1280 μg/mL, 1 h, OD570nm, n = 5
Procedure: Mouse erythrocytes were diluted to a final suspension concentration of 8% (v/v). Then, 100 μL erythrocyte suspension was incubated with 100 μL peptides at different concentrations ranging from 2.5 to 1280 μg/mL. PBS and 0.2% Triton X-100 were used as negative and positive controls, respectively. After 1 h of incubation, the tested samples were centrifuged for 5 min at 1000 g. Lastly, the absorbance of the supernatant of tested samples was measured at 570 nm. The percentage of hemolytic was obtained using the following formula: Hemolysis rate = [OD570nm (peptides) − OD570nm (PBS)]/[OD570nm (Triton X − 100) − OD570nm (PBS)] × 100 % .

NIH 3 T3 cells = assay: Cytotoxicity assay (MTT); conditions: 24 h, at a concentration of 1280 μg/mL, n = 5
Procedure: NIH 3 T3 cells were seeded in a 96-well with a density of 1× 10^4 cells per well and incubated in 37 °C for 24 h. Afterward, the cell medium was replaced by fresh DMEM containing various concentrations of peptides (2.5–1280 μg/mL). After 24 h incubation, 20 μL MTT agent (5 mg/mL) was added to each well and incubated for 4 h. Then, the supernatant of each well was replaced with 150 μL DMSO. The absorbance was measured by a microplate reader (FlexStation III) at 570 nm.

P. aeruginosa GIM1.551 [8] = assay: P. aeruginosa GIM1.551-infected mouse abscess model; type: in vivo; conditions: P. aeruginosa GIM1.551 model; 10 μL of 1 μg/μL once per day for 3 days, day 3; n = 5
Text: as §1

P. aeruginosa GIM1.551 [9] = assay: P. aeruginosa GIM1.551-infected mouse knife injury model; type: in vivo; conditions: topical 10 μL of 1 μg/μL once per day for 7 days, day 7
Procedure: The P. aeruginosa strain GIM1.551 was used to build knife wound model of mouse as described elsewhere with minor modifications. A total of 30 mice were randomly divided into six groups. Briefly, the fur on the back of each mouse was removed by shaving. A 1.5 cm linear knife wound was made on the back of each mouse and infected by direct seeding with bacterial suspensions (1 × 10^8 CFU/mL, 50 μL). One day postinfection, the wounds were administered with PMAP-37 (10 μL, 1 μg/μL), PMAP-37(F34-R) (10 μL, 1 μg/μL), Chol-37(F34-R) (10 μL, 1 μg/μL), ampicillin sodium (10 μL, 1 μg/μL), or PBS (10 μL), and the treatment program was performed once per day for 7 days. The mice with no infection and treatment were used as blank control. The wounds of mice were wrapped in gauze bandages that were changed every day. Seven days after treatment, mice were euthanized with 120 mg/kg intraperitoneal (i.p.) sodium pentobarbital and their wound tissues were collected. The wound tissues were homogenized with a basic homogenizer. Following a 10-fold serial dilution in PBS, the homogenates were spread on TSB agar plates. The bacterial burden was determined after incubation at 37 °C for 18 h.

Row | Compound | MIC (S. typhimurium SL1344) | MIC, CaCl2 (P. aeruginosa GIM1.551 [3]) [µg/mL] | MIC, Fetal bovine serum (P. aeruginosa GIM1.551 [3]) [µg/mL] | MIC, NaCl (P. aeruginosa GIM1.551 [3]) [µg/mL] | MIC, control (P. aeruginosa GIM1.551 [3]) [µg/mL] | MIC, CaCl2 (S. aureus ATCC25923 [4]) [µg/mL] | MIC, Fetal bovine serum (S. aureus ATCC25923 [4]) [µg/mL] | MIC, NaCl (S. aureus ATCC25923 [4]) [µg/mL] | MIC, control (S. aureus ATCC25923 [4]) [µg/mL] | MIC (P. aeruginosa GIM1.551 [5]; GIM1.551, 18 h) | MIC ([6]; CICC21634, 18 h) | MIC (S. aureus ATCC25923 [7]; ATCC25923, 18 h) | also measured
1 | CC1(C)S[C@@H]2[C@H](NC(=O)Cc3ccccc3)C(=O)N2[C@H]1C(=O)O [benzylpenicillin potassium] | – | – | – | – | – | – | – | – | – | – | – | – | tissue damage of liver and spleen (histopathology) (S. aureus ATCC25923 [1]): eliminated most of the damaged tissues; bacterial load in the liver and spleen (S. aureus ATCC25923 [1]; n = 5): reduced the bacterial load; bacterial load in the abscess (S. aureus ATCC25923 [2]): reduced bacterial load in the abscess
2 | GLLSRLRDFLSDRGRRLGEKIERIGQKIKDLSERFQS [PMAP-37(F34-R)] | 1** μg/mL | 1 | 1 | 1 | 1 | 0.0156 | 0.0156 | 0.0156 | 0.0156 | 1* μg/mL | 2* μg/mL | 0.0156* μg/mL | –
3 | GLLSRLRDFLSDRGRRLGEKIERIGQKIKDLSEFFQS [PMAP-37] | 4 µg/mL | 2 | 2 | 2 | 2 | 0.0313 | 0.0313 | 0.0313 | 0.0313 | 2 µg/mL | 4 µg/mL | 0.0313 µg/mL | –
4 | CC[C@H](C)[C@H](NC(=O)[C@H](CCCNC(=N)N)NC(=O)[C@H](CCC(=O)O)NC(=O)[C@@H](NC(=O)[C@H](CCCCN)NC(=O)[C@H](CCC(=O)O)NC(=O)CNC(=O)[C@H](CC(C)C)NC(=O)[C@H](CCCNC(=N)N)NC(=O)[C@H](CCCNC(=N)N)NC(=O)CNC(=O)[C@H](CCCNC(=N)N)NC(=O)[C@H](CC(=O)O)NC(=O)[C@H](CO)NC(=O)[C@H](CC(C)C)NC(=O)[C@H](Cc1ccccc1)NC(=O)[C@H](CC(=O)O)NC(=O)[C@H](CCCNC(=N)N)NC(=O)[C@H](CC(C)C)NC(=O)[C@H](CCCNC(=N)N)NC(=O)[C@H](CO)NC(=O)[C@H](CC(C)C)NC(=O)[C@H](CC(C)C)NC(=O)CNC(=O)O[C@H]1CC[C@@]2(C)C(=CC[C@H]3[C@@H]4CC[C@H]([C@H](C)CCCC(C)C)[C@@]4(C)CC[C@@H]32)C1)[C@@H](C)CC)C(=O)NCC(=O)N[C@@H](CCC(N)=O)C(=O)N[C@@H](CCCCN)C(=O)N[C@H](C(=O)N[C@@H](CCCCN)C(=O)N[C@@H](CC(=O)O)C(=O)N[C@@H](CC(C)C)C(=O)N[C@@H](CO)C(=O)N[C@@H](CCC(=O)O)C(=O)N[C@@H](CCCNC(=N)N)C(=O)N[C@@H](Cc1ccccc1)C(=O)N[C@@H](CCC(N)=O)C(=O)N[C@@H](CO)C(=O)O)[C@@H](C)CC [Chol-37(F34-R)] (Cholesteryloxycarbonyl-GLLSRLRDFLSDRGRRLGEKIERIGQKIKDLSERFQS-OH) | – | 0.5 (≈ 0.104 µM) | 0.5 (≈ 0.104 µM) | 0.5 (≈ 0.104 µM) | 0.5 (≈ 0.104 µM) | 0.0078 (≈ 0.00163 µM) | 0.0078 (≈ 0.00163 µM) | 0.0078 (≈ 0.00163 µM) | 0.0078 (≈ 0.00163 µM) | – | – | – | MIC (P. aeruginosa GIM1.551 [5]; P. aeruginosa GIM1.551, MHB, 1 × 10^6 CFU/mL, 37 °C, 18 h, OD600nm, three independent experiments performed in triplicate): 0.5** μg/mL; MIC ([6]; L. monocytogenes CICC21634, MHB, 1 × 10^6 CFU/mL, 37 °C, 18 h, OD600nm, three independent experiments performed in triplicate): 0.5** μg/mL; MIC (S. aureus ATCC25923 [7]; S. aureus ATCC25923, MHB, 1 × 10^6 CFU/mL, 37 °C, 18 h, OD600nm, three independent experiments performed in triplicate): 0.0078** μg/mL; hemolysis rate (mouse erythrocytes): less than 5%; cell survival rate (NIH 3 T3 cells): over 80%
5 | CC1(C)S[C@@H]2[C@H](NC(=O)[C@H](N)c3ccccc3)C(=O)N2[C@H]1C(=O)O [ampicillin sodium] | – | – | – | – | – | – | – | – | – | – | – | – | bacterial load in the abscess (P. aeruginosa GIM1.551 [8]): reduced bacterial load in the abscess; wound size vs PBS group (P. aeruginosa GIM1.551 [9]): smaller wound sizes than that of the PBS group
